What was measured:
Human 5-HT1A Receptor [1] = target: T1, Human 5-HT1A Receptor (Homo sapiens, UniProt P08908); test: 8-OH-DPAT binding, human 5-HT1A receptor cell line (displacement of [3H]-OHDPAT, stably transfected CHO cells); details: [3H]-OHDPAT 1.5 nM, read-out: h5HT1A Affinity Ki (nM) (Example 17)
T1 construct: expressed in transfected cells; host or cells: CHO cells (Chinese hamster ovary), stably transfected
T1 sequence (P08908 1-422): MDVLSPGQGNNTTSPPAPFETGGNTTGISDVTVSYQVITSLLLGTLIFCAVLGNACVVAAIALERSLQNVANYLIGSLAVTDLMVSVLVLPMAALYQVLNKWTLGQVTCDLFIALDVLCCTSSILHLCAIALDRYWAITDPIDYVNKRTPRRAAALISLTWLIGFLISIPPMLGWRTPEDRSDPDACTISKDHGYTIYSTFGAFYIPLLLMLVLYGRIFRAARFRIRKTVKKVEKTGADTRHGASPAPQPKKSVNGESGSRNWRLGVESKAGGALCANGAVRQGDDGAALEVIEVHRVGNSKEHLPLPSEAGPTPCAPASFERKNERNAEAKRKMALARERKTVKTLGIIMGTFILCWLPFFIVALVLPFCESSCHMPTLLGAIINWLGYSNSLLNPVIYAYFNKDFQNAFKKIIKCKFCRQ
Method: Affinity for the serotonin 5-HT1A receptor was established by testing each compound's ability to displace [^3H]-OHDPAT (dipropylaminotetralin) from the 5-HT1A serotonin receptor following a modification of the procedure of Hall et al., J. Neurochem. 44:1685-1696 (1985). Stably transfected Chinese hamster ovary (CHO) cells were plated and grown in Dulbecco's Modified Eagle's Medium (DMEM) containing 10% heat inactivated fetal bovine serum (FBS) and non-essential amino acids. Cells were scraped off the plate, transferred to centrifuge tubes, and washed twice by centrifugation (2000 rpm for 10 minutes at 4° C.) in buffer (50 mM Tris, pH 7.5). The resulting pellets were aliquoted and stored at −80° C. On the day of assay, the cells were thawed on ice, and re-suspended in buffer. The binding assay was performed in a 96-well microtiter plate in a total volume of about 250 μL. Non-specific binding was determined in the presence of 10 μM 5-HT; the final radio ligand concentration was 1.5 nM. Following a 30 minute incubation at room temperature, the reaction was terminated by the addition of ice cold buffer and rapid filtration through a GF/B filter presoaked for 30 minutes in 0.5% polyethyleneimine (PEI). Compounds were initially tested in a single point assay to determine percent inhibition at 1 μM, 0.1 μM, and 0.01 μM. Subsequently, Ki values were determined for compounds defined to be active. Percent inhibition Ki was determined by RFComp (Lundon Software, Chagrin Falls, Ohio), with serotonin and 8-OH-DPAT as the reference compounds.
High affinity for the receptor is evidence of a compound's ability to directly modulate activity at the 5-HT1A receptor.

Human 5-HT1A Receptor [2] = target: T1, Human 5-HT1A Receptor; test: cAMP radioimmunoassay (RIA) in human 5-HT1A receptor cell line, inhibition of forskolin stimulated cAMP; type: cell-based; details: forskolin (1 μM) stimulated cAMP, stably transfected CHO cells; read-out: h5HT1A cAMP EC50 (nM) (Example 19)
Method: Certain effects of 5-HT (e.g., certain effects mediated by the interaction of 5-HT with the 5-HT1A receptor) are mediated by cAMP. To test the ability of compounds described herein to modulate cAMP, a radioimmunoassay (RIA) method was used. Briefly, stably transfected CHO cells were grown in DMEM containing 10% heat inactivated FBS and non-essential amino acids. The cells were plated at a density of 10^6 cells per well in a 96-well plate and incubated for 2 days in a CO2 incubator. On the second day, the medium was replaced with 0.1 ml Krebs and incubated 15 minutes at 37° C. The medium was then replaced with Krebs buffer containing 500 μM isobutylmethylxanthine (IBMX) and incubated for approximately 5 minutes at 37° C. Wells were treated with forskolin (1 μM final concentration) followed immediately by test compound (0.1 and 1 μM for the initial screen) and incubated for an additional 10 minutes at 37° C. The reaction was terminated by removal of the medium and the addition of 0.5 ml ice cold assay buffer (supplied in the RIA kit). Plates were stored at −20° C. prior to assessment of cAMP formation by RIA. The cAMP kit was obtained from Amersham (Piscataway, N.J.) and the RIA was performed as per the kit instructions. In the initial screen, percent inhibition of forskolin stimulated cAMP was measured. […] These compounds behaved as either full agonists or partial agonists. 5-HT, BMY 7378, buspirone, and 8-OH-DPAT were used as reference compounds.
All compounds tested inhibited the forskolin-stimulated increase in […].

serotonin transporter = target: T2, serotonin transporter (Rattus norvegicus, UniProt P31652); test: 3H-paroxetine binding to rat frontal cortical membranes, affinity for the serotonin transporter; details: 3H-paroxetine 0.1 nM, male Sprague Dawley rat frontal cortical membranes; read-out: 5HT Uptake r5HT-T Ki (nM) (Example 18)
T2 construct: frontal cortical membranes prepared from male Sprague Dawley rats; from tissue; host or cells: rat frontal cortex membranes (male Sprague Dawley)
Method: A protocol similar to that used by Cheetham et al. (Neuropharmacol. 32:737-743, 1993) was used to determine the affinity of compounds for the serotonin transporter (i.e., by determining the relative ability of a compound to displace ^3H-paroxetine from male rat frontal cortical membranes). Briefly, frontal cortical membranes prepared from male Sprague Dawley rats were incubated with ^3H-paroxetine (0.1 nM) for 60 minutes at 25° C. All tubes also contained either vehicle, test compound (one to eight concentrations), or a saturating concentration of fluoxetine (10 μM) to define […]. All reactions were terminated by the addition of ice cold Tris buffer followed by rapid filtration using a Tom Tech filtration device to separate bound from free ^3H-paroxetine. Bound radioactivity was quantitated using a Wallac 1205 Beta Plate® counter. Nonlinear regression analysis was used to determine IC50 values which were converted to Ki values using the method of Cheng and Prusoff (Biochem. Pharmacol. 22: 3099-3108, 1973); […].
This affinity translates to the blockade of 5-HT uptake, i.e., the ability of a compound increase synaptic 5-HT levels and to act like an SSRI.

Human 5-HT Transporter = target: T3, Human 5-HT Transporter (Homo sapiens, UniProt P31645); test: Inhibition of 3H-5-HT uptake by Jar cells possessing the human 5-HT transporter; type: cell-based; details: Jar cells treated with staurosporine, read-out: 5HT Uptake h5HT-T IC50 (nM) (Example 20)
T3 construct: endogenous in cells; host or cells: Jar cells (human carcinoma cell line), treated with staurosporine
Method: [Staurosporine greatly increases the expression of the 5-HT-Transporter.] On the day of assay, vehicle, excess of fluoxetine, or test compound was added to various wells on the plate. ^3H-5-HT was then aliquoted into all wells and the samples were incubated at 37° C. for 5 minutes. The wells were then washed with ice cold 50 mM Tris HCl (pH 7.4) buffer and aspirated to remove free ^3H-5-HT. 25 μL 0.25 M NaOH was then added to each well to lyse the cells and 75 μL scintillation cocktail (Microscint™ 20) was added prior to quantitation on a Packard TopCount® machine. Tubes with vehicle represent total possible uptake, radioactivity counted in tubes with excess fluoxetine represent nonspecific binding/uptake and were subtracted from the total possible uptake to give total possible specific uptake. This nonspecific binding (usual low in number) was then subtracted from the counts obtained in wells with various test compounds (or different concentrations of a test compound) resulting in uptake in the presence of drug. Specific uptake was then expressed as a percent of control values and was analyzed using nonlinear regression analysis (Prizm) to determine IC50 values. If the compound was active in inhibiting 5-HT uptake, its counts will be close to that obtained with fluoxetine.
This blockade, in vivo, would be expected to result in an increase in extracellular 5-HT concentrations.

T3 sequence (P31645 whole entry): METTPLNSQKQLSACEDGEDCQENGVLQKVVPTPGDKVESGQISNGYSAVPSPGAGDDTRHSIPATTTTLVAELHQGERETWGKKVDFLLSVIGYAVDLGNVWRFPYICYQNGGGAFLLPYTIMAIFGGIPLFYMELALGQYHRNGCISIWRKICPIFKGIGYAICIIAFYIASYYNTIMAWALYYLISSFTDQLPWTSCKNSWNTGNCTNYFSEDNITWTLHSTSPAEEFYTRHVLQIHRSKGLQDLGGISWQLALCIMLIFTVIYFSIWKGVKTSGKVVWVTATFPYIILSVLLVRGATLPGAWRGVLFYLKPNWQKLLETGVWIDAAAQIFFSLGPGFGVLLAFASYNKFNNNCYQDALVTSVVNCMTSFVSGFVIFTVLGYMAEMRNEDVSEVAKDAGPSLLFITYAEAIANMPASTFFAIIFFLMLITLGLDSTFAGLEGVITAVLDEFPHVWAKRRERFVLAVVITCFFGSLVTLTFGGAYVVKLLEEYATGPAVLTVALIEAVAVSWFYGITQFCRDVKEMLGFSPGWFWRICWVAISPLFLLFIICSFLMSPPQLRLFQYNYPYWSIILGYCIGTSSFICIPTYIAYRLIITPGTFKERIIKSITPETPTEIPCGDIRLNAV
T2 sequence (P31652 whole entry): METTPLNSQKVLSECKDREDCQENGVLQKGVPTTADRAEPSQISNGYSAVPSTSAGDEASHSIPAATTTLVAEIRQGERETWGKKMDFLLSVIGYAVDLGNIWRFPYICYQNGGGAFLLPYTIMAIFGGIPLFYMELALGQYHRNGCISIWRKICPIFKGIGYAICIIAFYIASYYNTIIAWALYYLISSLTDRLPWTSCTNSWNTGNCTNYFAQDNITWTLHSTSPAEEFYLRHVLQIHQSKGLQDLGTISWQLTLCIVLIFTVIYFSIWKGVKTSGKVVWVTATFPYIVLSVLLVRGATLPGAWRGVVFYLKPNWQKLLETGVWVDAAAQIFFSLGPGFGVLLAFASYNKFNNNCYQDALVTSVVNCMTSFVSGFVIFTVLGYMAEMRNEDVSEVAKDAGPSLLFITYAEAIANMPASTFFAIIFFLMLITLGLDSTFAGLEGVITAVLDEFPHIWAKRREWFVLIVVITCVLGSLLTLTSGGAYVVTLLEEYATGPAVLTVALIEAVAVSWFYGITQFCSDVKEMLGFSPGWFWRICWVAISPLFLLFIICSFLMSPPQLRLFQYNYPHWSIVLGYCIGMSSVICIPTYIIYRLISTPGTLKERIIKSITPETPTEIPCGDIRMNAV

Cc1ccc2c3c(ccc2n1)OC[C@H](CNCCCN1CCc2ccccc21)O3 [Example 5, 3-(2,3-dihydro-1H-indol-1-yl)-N-{[(2S)-8-methyl-2,3-dihydro[1,4]dioxino[2,3-f]quinolin-2-yl]methyl}propan-1-amine]
Ki (Human 5-HT1A Receptor [1]): 0.62 nM | EC50 (Human 5-HT1A Receptor [2]): 3.44 nM | Ki (serotonin transporter): 21.1 nM | IC50 (Human 5-HT Transporter): 180 nM

Reference: US20080139546A1, “Tetrahydroquinoline, indoline, and related aniline derivatives of heterocycle-fused benzodioxan methylamines” (Wyeth, priority 2006, published 2008)
